In patent US7686975B2, “Use of acylcyclohexanedione derivatives for improving the tolerance of plants to cold and/or frost” (BASF Aktiengesellschaft, priority 2003, dated 2010):

Tests used:
Assay type in all cases: in vivo
apple flowers [1] = assay: Frost damage on apple flowers, naturally occurring frost event
Description: To study the effect of compounds I used in accordance with the invention, flower buds or flowers of various apple varieties were sprayed to run-off point at different stages and different points in time with prohexadione-calcium in the form of the commercial preparation Regalis® from BASF AG in the form of 10% strength granules with 250 ppm of active substance or with a mixture of vitamin E and glycerol (see treatments a) to d)) and subjected to a naturally occurring or simulated frost event during mid-bloom. The treated flowering branches and untreated flowering branches which had been subjected to the same frost event and which acted as control, were subsequently transferred for 2 to 4 days into a greenhouse with temperatures ranging from 15 to 25° C., and the floral injury was assessed. Apple branches with flower buds or flowers (R. Cox) were treated as described under a.3), b.3), c.3) or d.3) and subsequently subjected to a naturally occurring frost event. The frost period lasted 5 days. The lowest temperature was reached on day two of the frost event and was −4° C. One day after the frost event, the treated flowering branches and untreated control branches were cut off. One day after the branches had been cut off, the floral damage was assessed by examining the individual flowers. At the time of evaluation, the flowers were in floral stage BBCH 56-57. Apple branches with flower buds or flowers (Jonagold) were treated analogously to Example 1.2.1 and exposed to the same frost event. At the time of evaluation, the flowers were in floral stage BBCH 57-59. Apple branches with flower buds or flowers (Boskoop) were treated as described under a.4), b.4), c.4) or d.4) and subsequently subjected to a naturally occurring frost event. The frost period lasted for one day. The lowest temperature was −1.2° C. Two days after the frost event, the treated flowering branches and untreated control branches were cut off, and one day after the branches had been cut off, the floral damage was assessed by examining the individual flowers. At the time of evaluation, the flowers were in floral stage BBCH 57-61.

apple flowers [2] = assay: Frost damage on apple flowers, simulated frost event
Description: To study the effect of compounds I used in accordance with the invention, flower buds or flowers of various apple varieties were sprayed to run-off point at different stages and different points in time with prohexadione-calcium in the form of the commercial preparation Regalis® from BASF AG in the form of 10% strength granules with 250 ppm of active substance or with a mixture of vitamin E and glycerol (see treatments a) to d)) and subjected to a naturally occurring or simulated frost event during mid-bloom. The treated flowering branches and untreated flowering branches which had been subjected to the same frost event and which acted as control, were subsequently transferred for 2 to 4 days into a greenhouse with temperatures ranging from 15 to 25° C., and the floral injury was assessed. Apple branches with flower buds or flowers (R. Cox) were treated as specified under a.1), b.1), c.1) or d.1) and subsequently subjected to a simulated frost event. Nine days (a.1)) or one day (b.1)-d.1)) after the treatment, the treated flowering branches and untreated control branches were cut off and subjected to a simulated frost event. The temperature program of the simulated frost event was as follows: • chilling from 12° C. to 4° C. within 30 minutes • one hour at 4° C. • chilling from 4° C. to 2° C. within 15 minutes • 75 minutes at 2° C. • chilling from 2° C. to −3° C. within 30 minutes • 150 minutes at −3° C. Two days after the frost event, the floral damage was assessed by examining the individual flowers. At the time of evaluation, the flowers were in the floral stage BBCH 54-56 (BBCH=Biologische Bundesanstalt für Land- und Forstwirtschaft, Bundessortenamt und Chemische Industrie [Federal Biological Institute for Agriculture and Forestry, Federal Office for Crop Plant Varieties, Chemical Industry]). Those flowers whose ovary is brownish in color are considered as damaged (destroyed). The data which represent the percentage of damaged flowers correspond to the mean±standard deviation. A statistically significant difference (critical difference: 5%) between the means of the various measurement series is identified by different letters. Apple branches with flower buds or flowers (R. Cox) were treated analogously to Example 1.1.1, but remained for 210 minutes in the frost chamber at −3° C. Apple branches with flower buds or flowers (Jonagold) were treated analogously to Example 1.1.1. They remained for 150 minutes in the frost chamber at −3° C. At the time of evaluation, the flowers were in floral stage BBCH 56-57. Apple branches with flower buds or flowers (Jonagold) were treated analogously to Example 1.1.3, but remained for 210 minutes in the frost chamber at −3° C. Apple branches with flower buds or flowers (Gala) were treated as described under a.2), b.2), c.2) or d.2) and subsequently subjected to a simulated frost event. 11 days (a.2)) or two days (b.2)-d.2)) after the treatment, the treated flowering branches and untreated control branches were cut off and subjected to a simulated frost event. The temperature program of the simulated frost event corresponded to the one in Example 1.1.1. Four days after the frost event, the floral damage was assessed by examining the individual flowers. At the time of evaluation, the flowers were in floral stage BBCH 57-59. Apple branches with flower buds or flowers (Boskoop) were treated analogously to Example 1.1.5. At the time of evaluation, the flowers were in floral stage BBCH 59-61. They remained at −3° C. for 150 minutes.

apple seedlings = assay: Photochemical efficacy of electron transport (Fv/Fm, PAM fluorometer) in apple seedlings after simulated frost event; conditions: Golden Delicious seedlings
Description: Intact photosynthesis in leaves and other green plant tissues is of utmost importance for frost resistance and the intensity of the subsequent regeneration processes. To study the effect of compounds I which were used in accordance with the invention, the photosynthesis rate of treated (a.5) to (e.5)) and untreated apple seedlings which had been subjected to a simulated frost event was determined.
The material used for the experiments was apple seedlings which had been grown from seeds of Golden Delicious apples following cold stratification under controlled-environment cabinet conditions (temperature approx. 20° C.; relative atmospheric humidity approx. […]; day:night=10.5:13.5 hours; light intensity approx. 200 μmol m^−2 s^−1) and which had three to four fully formed leaves at the point in time of treatment. Batches of 10 plants per combination were treated as follows:
To simulate the frost event, the plants were subjected to the following chill program: • removal from the controlled-environment cabinet (20° C.) • transfer into the chill cell to randomized positions at a height of approximately 40 cm for approx. 6 hours at 12° C. • 2 hours at 4° C. • 1.5 hours at 2° C. • 1 hour at 0° C. • 3.5 hours at −3° C. • controlled-environment cabinet (20° C.)
The photosynthesis rate of the stressed apple seedlings was subsequently determined with the aid of a pulse amplitude modulation fluorometer (PAM 2000, Heinz Walz GmbH, Effeltrich). The quotient Fv/Fm, which is determined, describes the amount of light energy captured by the photosynthesis apparatus of the plants which can be exploited for the production of assimilates. Fv represents the variable fluorescence, which corresponds to the difference between F0 (basal fluorescence, which is measured when a dark-adapted leaf is irradiated with fluorescence-exciting light) and Fm (maximum fluorescence of a dark-adapted leaf) (Fv/Fm=(Fm−F0)/Fm).

## CCC(=O)C1=C([O-])CC(C(=O)[O-])CC1=O.[Ca+2] (centres unmarked) [prohexadione-calcium]
Apple flowers [1]; Boskoop, buds sprayed thirteen days prior to natural frost, prohexadione-calcium 250 ppm, frost one day, lowest −1.2° C., mean±SD
  Percentage of damage to flowers: 84.3 ± 3.3%
Apple flowers [1]; Boskoop, flowers (mid-bloom) sprayed five days prior to natural frost, prohexadione-calcium 250 ppm, frost one day, lowest −1.2° C., mean±SD
  Percentage of damage to flowers: significantly fewer
Apple flowers [1]; Boskoop, flowers (mid-bloom) sprayed five days prior to natural frost; prohexadione-calcium 250 ppm; frost one day, lowest −1.2° C.; mean±SD; listed as b.4)
  Percentage of damage to flowers: 74.7 ± 3.0%
Apple flowers [1]; Jonagold, buds sprayed ten days prior to natural frost, prohexadione-calcium 250 ppm, frost period 5 days, lowest −4° C., mean±SD
  Percentage of damage to flowers: 67.5 ± 2.3%
Apple flowers [1]; Jonagold, flowers (mid-bloom) sprayed two days prior to natural frost, prohexadione-calcium 250 ppm, frost period 5 days, lowest −4° C., mean±SD
  Percentage of damage to flowers: 67.7 ± 2.6%
Apple flowers [1]; R. Cox, buds sprayed ten days prior to natural frost, prohexadione-calcium 250 ppm, frost period 5 days, lowest −4° C., mean±SD
  Percentage of damage to flowers: reduced floral damage
Apple flowers [1]; R. Cox; buds sprayed ten days prior to natural frost; prohexadione-calcium 250 ppm; frost period 5 days, lowest −4° C.; mean±SD; listed as a.3)
  Percentage of damage to flowers: 88.3 ± 1.3%
Apple flowers [1]; R. Cox, flowers (mid-bloom) sprayed two days prior to natural frost, prohexadione-calcium 250 ppm, frost period 5 days, lowest −4° C., mean±SD
  Percentage of damage to flowers: reduced floral damage
Apple flowers [1]; R. Cox, flowers (mid-bloom) sprayed two days prior to natural frost; prohexadione-calcium 250 ppm; frost period 5 days, lowest −4° C.; mean±SD; listed as b.3)
  Percentage of damage to flowers: 76.6 ± 1.7%
Apple flowers [2]; Boskoop, buds sprayed eleven days prior to simulated frost, prohexadione-calcium 250 ppm, 150 minutes at −3° C., mean±SD
  Percentage of damage to flowers: significantly fewer
Apple flowers [2]; Boskoop; buds sprayed eleven days prior to simulated frost; prohexadione-calcium 250 ppm; 150 minutes at −3° C.; mean±SD; listed as a.2)
  Percentage of damage to flowers: 33.6 ± 4.1%
Apple flowers [2]; Boskoop, flowers (mid-bloom) sprayed two days prior to simulated frost, prohexadione-calcium 250 ppm, 150 minutes at −3° C., mean±SD
  Percentage of damage to flowers: significantly fewer
Apple flowers [2]; Boskoop, flowers (mid-bloom) sprayed two days prior to simulated frost; prohexadione-calcium 250 ppm; 150 minutes at −3° C.; mean±SD; listed as b.2)
  Percentage of damage to flowers: 36.8 ± 4.2%
Apple flowers [2]; Gala, buds sprayed eleven days prior to simulated frost, prohexadione-calcium 250 ppm, 150 minutes at −3° C., assessed four days after frost, mean±SD
  Percentage of damage to flowers: tends to reduce the damage
Apple flowers [2]; Gala; buds sprayed eleven days prior to simulated frost; prohexadione-calcium 250 ppm; 150 minutes at −3° C.; assessed four days after frost; mean±SD; listed as a.2)
  Percentage of damage to flowers: 5.2 ± 1.8%
Apple flowers [2]; Gala, flowers (mid-bloom) sprayed two days prior to simulated frost, prohexadione-calcium 250 ppm, 150 minutes at −3° C., assessed four days after frost, mean±SD
  Percentage of damage to flowers: 8.8 ± 2.5%
Apple flowers [2]; Jonagold, buds sprayed nine days prior to simulated frost, prohexadione-calcium 250 ppm, 150 minutes at −3° C., mean±SD
  Percentage of damage to flowers: significantly fewer
Apple flowers [2]; Jonagold; buds sprayed nine days prior to simulated frost; prohexadione-calcium 250 ppm; 150 minutes at −3° C.; mean±SD; listed as a.1)
  Percentage of damage to flowers: 54.4 ± 3.2%
Apple flowers [2]; Jonagold, buds sprayed nine days prior to simulated frost, prohexadione-calcium 250 ppm, 210 minutes at −3° C., mean±SD
  Percentage of damage to flowers: significantly less damage
Apple flowers [2]; Jonagold; buds sprayed nine days prior to simulated frost; prohexadione-calcium 250 ppm; 210 minutes at −3° C.; mean±SD; listed as a.1)
  Percentage of damage to flowers: 43.8 ± 4.2%
Apple flowers [2]; Jonagold, flowers (mid-bloom) sprayed one day prior to simulated frost, prohexadione-calcium 250 ppm, 150 minutes at −3° C., mean±SD
  Percentage of damage to flowers: 69.0 ± 2.9%
Apple flowers [2]; Jonagold, flowers (mid-bloom) sprayed one day prior to simulated frost, prohexadione-calcium 250 ppm, 210 minutes at −3° C., mean±SD
  Percentage of damage to flowers: significantly less damage
Apple flowers [2]; Jonagold, flowers (mid-bloom) sprayed one day prior to simulated frost; prohexadione-calcium 250 ppm; 210 minutes at −3° C.; mean±SD; listed as b.1)
  Percentage of damage to flowers: 66.0 ± 2.7%
Apple flowers [2]; R. Cox, buds sprayed nine days prior to simulated frost, prohexadione-calcium 250 ppm, 210 minutes at −3° C., mean±SD
  Percentage of damage to flowers: significantly fewer
Apple flowers [2]; R. Cox; buds sprayed nine days prior to simulated frost; prohexadione-calcium 250 ppm; 210 minutes at −3° C.; mean±SD; listed as a.1)
  Percentage of damage to flowers: 6.0 ± 1.2%
Apple flowers [2]; R. Cox, buds sprayed to run-off nine days prior to simulated frost, prohexadione-calcium 250 ppm, 150 minutes at −3° C., assessed two days after frost, mean±SD
  Percentage of damage to flowers: significantly fewer
Apple flowers [2]; R. Cox; buds sprayed to run-off nine days prior to simulated frost; prohexadione-calcium 250 ppm; 150 minutes at −3° C.; assessed two days after frost; mean±SD; listed as a.1)
  Percentage of damage to flowers: 15.6 ± 2.5%
Apple flowers [2]; R. Cox, flowers (mid-bloom) sprayed one day prior to simulated frost, prohexadione-calcium 250 ppm, 210 minutes at −3° C., mean±SD
  Percentage of damage to flowers: 33.3 ± 2.6%
Apple flowers [2]; R. Cox, flowers (mid-bloom) sprayed to run-off one day prior to simulated frost, prohexadione-calcium 250 ppm, 150 minutes at −3° C., assessed two days after frost, mean±SD
  Percentage of damage to flowers: 23.1 ± 2.4%
Apple seedlings; sprayed 2 days prior to simulated frost (3.5 hours at −3° C.), prohexadione-calcium 50 ppm, 24 hours after frost
  Fv/Fm: survived the frost event virtually undamaged
Apple seedlings; sprayed 2 days prior to simulated frost (3.5 hours at −3° C.); prohexadione-calcium 50 ppm; 24 hours after frost; listed as c.5)
  Fv/Fm: 0.804
Apple seedlings; sprayed 8 days prior to simulated frost (3.5 hours at −3° C.), 50 ppm prohexadione-calcium, 24 hours after frost
  Fv/Fm: survived the frost event virtually undamaged
Apple seedlings; sprayed 8 days prior to simulated frost (3.5 hours at −3° C.); 50 ppm prohexadione-calcium; 24 hours after frost; listed as b.5)
  Fv/Fm: 0.809
Apple seedlings; sprayed 21 days prior to simulated frost (3.5 hours at −3° C.), 50 ppm prohexadione-calcium, 24 hours after frost
  Fv/Fm: survived the frost event virtually undamaged
Apple seedlings; sprayed 21 days prior to simulated frost (3.5 hours at −3° C.); 50 ppm prohexadione-calcium; 24 hours after frost; listed as a.5)
  Fv/Fm: 0.812
